Test results as given in patent US4576942A, “Anti-allergic and anti-inflammatory bi- and tri- cyclo-1,4-thiazine derivatives, composition, and method of use therefor” (USV Pharmaceutical Corp., priority 1984, dated 1986).
Read-outs that look alike come from different tables or passages of the source.

Legend:
5-lipoxygenase pathway = experiment: Inhibitors of the Lipoxygenase Pathway (LOX), [14C]-5-HETE formation in rat neutrophils; type: cell-based; set-up: key to LOX degree of activity: I: inactive; L: low activity; M: moderate activity; H: high activity; settings: for LOX degree of activity: class symbol in the LOX I50 column; for IC50: Neutrophil
Procedure: The following protocol describes an assay to detect inhibitors of the lipoxygenase pathway. Such inhibitors are believed to be capable of modulating the biosynthesis of the leukotrienes, a property believed to be useful in treating asthma and inflammatory disease states.
A suspension of rat neutrophils in buffer is incubated for 3 minutes at 30° C. with [^14 C]-arachidonic acid (AA) and Calcium Ionophore A23187. Citric Acid (2M) is used to quench the reaction. Following the addition of a trace amount of (^3 H)-5-HETE together with an excess of unlabeled 5-HETE to each tube, the mixture is extracted with chloroform/methanol. The organic layer is washed with dilute acid and an aliquot is transferred to glass tubes and dried. The residue is dissolved in a small volume of chloroform and an aliquot is spotted on silica gel TLC sheets, which are developed with an ethyl acetate/isoctane/water/acetic acid solvent system. The 5-HETE spots are visualized with iodine, cut out and placed in scintillation vials for counting. After adjusting for the extraction efficiency, the amount (pmole) of [^14 C]-5-HETE in each of the tubes is quantitated. The net pmoles of 5-HETE are obtained by substracting the pmoles of 5-HETE in the tubes containing buffer alone (blank) for the pmoles of 5-HETE in the tubes containing […]. The ability of the test compounds to modulate the activity of this enzyme is determined by a decrease or increase in the net amount of 5-HETE produced.

[1] = tested on: leukotriene C4-induced contraction of guinea pig peripheral strips; experiment: SRS-A (slow-reacting substance of anaphylaxis) antagonists, leukotriene C4-induced contraction of guinea pig peripheral lung strips; type: cell-based; set-up: key to SRS-A degree of inhibitory activity: I: inactive; L: low activity; M: moderate activity; H: high activity; settings: for SRS-A degree of inhibitory activity: 0.2 nM leukotriene C4, class symbol in the SRS-A I50 column; for IC50: Cavia porcellus, 0.2 nM leukotriene C4, 37° C., read-out: SRS-A I50 (concentration required for 50% inhibition of 0.2 nM leukotriene C4-induced contraction)
Procedure: Leukotrienes, the products of the 5-lipoxygenase pathway of arachidonic acid metabolism, are potent contractile agents with a variety of smooth muscle preparations. […] The following protocol describes an in vitro assay used to test compounds which specifically antagonize the actions of leukotrienes.
Peripheral strips of guinea pig lungs are prepared and hung in tissue baths (Metro # ME-5505, 10 ml) according to the published procedure (Proc. Nat'l Acad. Sci, U.S.A. Volume 77, pp. 4354-4358, 1980). The strips are thoroughly rinsed in Assay Buffer and then connected with surgical silk thread to the support rods from the tissue baths. The rods are adjusted in the baths and the strips connected to the pressure transducers (Grass FT 103 or Gould UC-3). The tissue baths are aerated with 95% oxygen-5% carbon dioxide and maintained at 37° C. The Assay Buffer has been made as follows: For each liter of buffer the following are added to approximately 800 ml of water distilled in glass--6.87 g. NaCl, 0.4 g. KCl, 2.1 g. NaHCO3, 0.14 g, NaH2 PO4.H2 O, 0.21 g. MgSO4.7H2 O, and 2.0 g. D-glucose. Then a solution of 0.368 g. CaCl2.2H2 O in 100 ml glass-distilled water is slowly added to the buffer. Sufficient water is added to adjust the volume to one liter, and the solution is aerated with 95% oxygen-5% carbon dioxide. Usually 10 liters of buffer are used for an experiment with 4 tissues.
After the tissues have been repeatedly washed and allowed to equilibrate in the tissue bath, they are challenged with 1 uM histamine. After maximum contractions have been obtained, the tissues are washed, and allowed to relax back to baseline tension. This histamine challenge procedure is repeated at least 1 to 2 more times to obtain a repeatable control response. The average response to 1 uM histamine for each tissue is used to normalize all other challenges.
Responses of each tissue to a pre-determined concentration of leukotriene are then obtained. Usually test compounds are examined initially at 30 uM on resting tension of the tissues without any added agonist or antagonist to determine if the compound has any possible intrinsic activity. The tissues are washed, and the test compound is added again. Leukotriene is added after the desired pre-incubation time. The intrinsic activity of the compounds, and their effect on leukotriene-induced contractions are then recorded.
The concentration required for 50% inhibition of 0.2 nM leukotriene C4 -induced contraction of guinea pig peripheral strips or degree of inhibitory activity for representative compounds of the present invention is shown in Table I denoted by SRS-A.

[2] = tested on: SRS-A (slow reacting substances of anaphylaxis), anaphylactic bronchoconstriction in guinea pigs; experiment: in vivo modulators of SRS-A: Bronchial Anaphylaxis in Guinea Pigs with Enhanced Leukotrines (BAGEL); set-up: species or system guinea pig; key: I: inactive; L: low activity; M: moderate activity; H: high activity; settings: 15 min before ovalbumin challenge
Procedure: Representative compounds of the present invention were also tested in the following in vivo model.
This test, known as the Bronchial Anaphylaxis in Guinea Pigs with Enhanced Leukotrines (BAGEL), is based on the procedure published in Agents and Actions, Vol. 11, pp. 396-401, 1981, and is performed with guinea pigs actively immunized (14 days) with ovalbumin (2.7 mg/kg, i.p.) and B.pertussis (5×10^9 organisms) as an adjuvant. Prior to challenge with antigen (ovalbumin), the animals are anesthetized and prepared for monitoring pulmonary dynamics by whole body plethysmography. They are treated with an H1 antihistamine (methapyrilene, 2 mg/kg, i.v.) and cyclooxygenase inhibitor (indomethacin; 20 mg/kg, i.p.) in order to enhance the SRS-A component of anaphylactic bronchoconstriction. Bronchoconstriction is quantified as the maximum increase in airway resistance following antigen challenge. The drug is administered either i.p. 10 minutes before challenge, or i.d. 15 minutes before challenge.

[3] = tested on: Human PMN (5-lipoxygenase pathway); experiment: LOX, Human PMN; type: cell-based; set-up: key to LOX degree of activity, Human PMN: I: inactive; L: low activity; M: moderate activity; H: high activity
[4] = arachidonic acid + Ca ionophore A23187, 30° C., read-out: LOX I50 (concentration required for 50% inhibition of the 5-lipoxygenase pathway)

| Compound | IC50 (5-lipoxygenase pathway; [4]) [µM] | IC50 [1] [µM] | LOX degree of activity (5-lipoxygenase pathway) | SRS-A degree of inhibitory activity [1] | also measured |
| --- | --- | --- | --- | --- | --- |
| CCOC(=O)C=C1CSc2ccccc2N1 |  |  | I | M |  |
| O=C(C=C1CSc2ccccc2N1)Nc1ccccc1Cl |  |  | M |  |  |
| CCOC(=O)C(Cl)=C1CSc2ccccc2N1 | 1.7 |  |  | M | BAGEL activity ([2]; 200 mg/kg i.d.): L |
| CCOC(=O)C=C(C(=O)OCC)C(C(=O)OCC)=C1CSc2ccccc2N1 |  |  |  | I | IC50 (5-lipoxygenase pathway; cell prints 3μ .M, read-out: LOX I50, unit printed in the cell): 3 µM; LOX degree of activity, Human PMN ([3]; Human PMN, 135 μM): L; BAGEL activity ([2]; 30 mg/kg i.d.): H |
| CCOC(=O)c1c2csc3ccccc3n-2c(=O)c1O | 12 |  |  | I |  |

Now from value to compound, other results behind:

| IC50 (5-lipoxygenase pathway; [4]) [µM] | IC50 [1] [µM] | Compound | LOX degree of activity (5-lipoxygenase pathway) | SRS-A degree of inhibitory activity [1] | also measured |
| --- | --- | --- | --- | --- | --- |
| 1.6 | 18 | O=C(C=C1CSc2ccccc2N1)Nc1ccccc1 |  |  |  |
| 1.2 | 20 | CCOC(=O)C(Cl)=C1CSc2ncccc2N1 |  |  | IC50 ([3]; Homo sapiens, read-out: LOX I50, Human PMN): 1 µM; BAGEL activity ([2]; 200 mg/kg i.d.): M-H |
|  | 25 | N#CC(C(N)=O)=C1CSc2ccccc2N1 | I |  |  |
